Data set [1] relates to Mus musculus. Description: Percent reduction of edema in mice 3h after oral administration of 300 mg/kg in carrageenan model. It is filed as functional.
In data set [2] the test system is Rattus norvegicus. Description: Percent reduction of edema in rat on 23rd day after oral administration of 300 mg/kg in antiarthritis assay; i = Inactive. Details: dose 300 mg/kg. The following applies: at 300 mg/kg. In kind it is functional, organism-based.
Data set [3] relates to Mus musculus. Description: Percent reduction of edema in mice 3h after oral administration of 100 mg/kg in carrageenan model. In kind it is functional.
Data set [4] deals with Rattus norvegicus. The experiment in a line: Percent reduction of edema in rat on 23rd day after oral administration of 100 mg/kg in antiarthritis assay. In kind it is functional.
For data set [5], the system named is Mus musculus. The experiment in a line: Acute toxicity was evaluated as number of mice died (tested = 7) after 72nd hour when 15 mg/kg is administered intraperitoneally. In kind it is organism-based. Details: dose 15 mg/kg, route intraperitoneal. The settings on record: in vivo, ip.
The species named for data set [6] is Rattus norvegicus. The experiment in a line: Antiinflammatory activity in carrageenan model, activity is expressed as ED50 values. It is filed as functional.
In data set [7] the test system is Rattus norvegicus. The experiment in a line: (§1) Analgesic activity evaluated by measuring % analgesic effect, after oral administration of 120 mg/kg in acetic acid writhing test. In kind it is functional.
The species named for data set [8] is Mus musculus. Description: Analgesic activity in acetic acid writhing test, activity is expressed as ED50 values. In kind it is functional. (An intraperitoneal irritant provokes the stretching counted in writhing tests.)
Data set [9] relates to Mus musculus. The experiment in a line: Percent reduction of edema in mice 3h after oral administration of 3 mg/kg in carrageenan model. In kind it is functional.
Data set [10] deals with Rattus norvegicus. The experiment in a line: Percent reduction of edema in rat on 23rd day after oral administration of 3 mg/kg in antiarthritis assay. It is filed as functional.
Data set [11] relates to Rattus norvegicus. The experiment in a line: Antiinflammatory activity evaluated by measuring % reduction of edema, 3h after oral administration of 5 mg/kg in carrageenan model. It is filed as functional.
Data set [12] deals with Rattus norvegicus. The experiment in a line: Ulcer index at 50 mg/kg concentration. In kind it is functional.
The nature of data set [13]: Therapeutic index was expressed as LD50/ED50 carragreenin model. The settings on record: mouse; read-out: TI.
Data set [14] has as its system Rattus norvegicus. The experiment in a line: Median ulcerogenic dose was determined at 30 mg/kg dose. It is filed as functional.
For data set [15], the system named is Rattus norvegicus. The experiment in a line: Ulcer index at 30 mg/kg concentration. It is filed as functional.
Data set [16] deals with Mus musculus. The experiment in a line: Acute toxicity was evaluated as number of mice died (tested = 7) after 72nd hour when 12 mg/kg is administered intraperitoneally. It is filed as organism-based. Further details: dose 12 mg/kg, route intraperitoneal. The settings on record: in vivo, ip.
The subject of data set [17] is Mus musculus. Description: Acute toxicity was evaluated as number of mice died (tested = 7) after 72nd hour when 8 mg/kg is administered intraperitoneally. Further details: dose 8 mg/kg, route intraperitoneal. The following applies: in vivo, ip. It is filed as organism-based.
The test system of data set [18] is Rattus norvegicus. The experiment in a line: Analgesic activity evaluated by measuring % analgesic effect, after oral administration of 1.0 mg/kg in acetic acid writhing test. In kind it is functional.
Data set [19] relates to Rattus norvegicus. The experiment in a line: Analgesic activity evaluated by measuring % analgesic effect, after oral administration of 3.0 mg/kg in acetic acid writhing test. In kind it is functional.
For data set [20], the system named is Mus musculus. The experiment in a line: Acute toxicity was evaluated as number of mice died (tested = 7) after 72nd hour when 75 mg/kg is administered intraperitoneally. It is filed as organism-based. The settings on record: in vivo, ip. Further details: dose 75 mg/kg, route intraperitoneal.
For data set [21], the system named is Rattus norvegicus. Description: Ulcer index at 5 mg/kg concentration. In kind it is functional.
The subject of data set [22] is Rattus norvegicus. Description: Antiinflammatory activity evaluated by measuring % reduction of edema, 3h after oral administration of 1 mg/kg in carrageenan model. In kind it is functional.
Data set [23] can be described thus: Toxic activity is expressed as LD50 values. The settings on record: mouse, in vivo. In kind it is toxicity, organism-based.
The test system of data set [24] is Mus musculus. Description: Percent reduction of edema in mice 3h after oral administration of 30 mg/kg in carrageenan model. It is filed as functional.
For data set [25], the system named is Rattus norvegicus. The experiment in a line: Percent reduction of edema in rat on 23rd day after oral administration of 30 mg/kg in antiarthritis assay; i = Inactive. The following applies: at 30 mg/kg. Further details: dose 30 mg/kg. It is filed as functional, organism-based.
The subject of data set [26] is Mus musculus. Description: Percent reduction of edema in mice 3h after oral administration of 20 mg/kg in carrageenan model. In kind it is functional.
Data set [27] has as its system Rattus norvegicus. The experiment in a line: Percent reduction of edema in rat on 23rd day after oral administration of 20 mg/kg in antiarthritis assay; i = Inactive. It is filed as functional, organism-based. Further details: dose 20 mg/kg. The settings on record: at 20 mg/kg.
Data set [28] concerns Rattus norvegicus. Description: Percent reduction of edema in rat on 23rd day after oral administration of 20 mg/kg in antiarthritis assay. In kind it is functional.
In data set [29] the test system is Mus musculus. The description is as §1. It is filed as functional.
Data set [30] has as its system Mus musculus. The experiment in a line: Acute toxicity was evaluated as number of mice (tested=7) died after 72nd hour when 130 mg/kg is administered intraperitoneally. Further details: dose 130 mg/kg, route intraperitoneal. The settings on record: in vivo, ip. In kind it is organism-based.
Data set [31] deals with Mus musculus. The experiment in a line: Analgesic activity evaluated by measuring % analgesic effect, after oral administration of 60 mg/kg in acetic acid writhing test. In kind it is functional.
Data set [32] has as its system Mus musculus. The experiment in a line: […] toxicity was evaluated (number of mice died after 72nd hour when 150 mg/kg is administered intraperitoneally. The settings on record: in vivo, ip. In kind it is organism-based. Further details: dose 150 mg/kg, route intraperitoneal.
For data set [33], the system named is Rattus norvegicus. Description: Percent reduction of edema in rat on 23rd day after oral administration of 30 mg/kg in antiarthritis assay. In kind it is functional.
The subject of data set [34] is Mus musculus. Description: Acute toxicity was evaluated as number of mice (tested=7) died after 72nd hour when 100 mg/kg is administered intraperitoneally. It is filed as organism-based. Details: dose 100 mg/kg, route intraperitoneal. The settings on record: in vivo, ip.
The subject of data set [35] is Mus musculus. The experiment in a line: Analgesic activity evaluated by measuring % analgesic effect, after oral administration of 80 mg/kg in acetic acid writhing test. It is filed as functional.
The test system of data set [36] is Rattus norvegicus. Description: Antiinflammatory activity evaluated by measuring % reduction of edema, 3h after oral administration of 100 mg/kg in carrageenan model. It is filed as functional.
In data set [37] the test system is Rattus norvegicus. Description: Antiinflammatory activity evaluated by measuring % reduction of edema, 3h after oral administration of 10 mg/kg in carrageenan model. In kind it is functional.
The species entered for data set [38] is Rattus norvegicus. The experiment in a line: Ulcer index of the compound. In kind it is functional.
For data set [39], the system named is Rattus norvegicus. The experiment in a line: Antiinflammatory activity evaluated by measuring % reduction of edema, 3h after oral administration of 25 mg/kg in carrageenan model. It is filed as functional.
The test system of data set [40] is Mus musculus. The experiment in a line: Acute toxicity was evaluated as number of mice (tested=7) died after 72nd hour when 115 mg/kg is administered intraperitoneally. It is filed as organism-based. The following applies: in vivo, ip. Details: dose 115 mg/kg, route intraperitoneal.
The test system of data set [41] is Mus musculus. Description: Acute toxicity was evaluated as number of mice (tested=7) died after 72nd hour when 120 mg/kg is administered intraperitoneally. It is filed as organism-based. The following applies: in vivo, ip. Further details: dose 120 mg/kg, route intraperitoneal.

The source made the active and inactive calls. The calls are words filed in the database; no cut-off is given here.

`Cc1cn(C)c2cc(-c3ccccc3)nn2c1=O`: the Reduction with Mus musculus [1] stood at 68.7%. For the same compound, the Reduction entry with Rattus norvegicus [2] was “inactive”.
As for `CCn1c(=O)ccn2nc(-c3ccccc3)cc12`, the Reduction in the data set with Mus musculus [3] was 32.2%; in the data set with Rattus norvegicus [4], 25.7%.
For orientation: ED50 means the dose that gives a 50% effect, or the effect in half of the subjects. A higher ED50 goes with weaker potency. By LD50 is commonly meant the dose expected to kill half of the subjects tested. A lower LD50 goes with a more toxic substance. As to `COc1ccc2c(c1)c(CC(=O)O)c(C)n2C(=O)c1ccc(Cl)cc1` [INDOMETHACIN], the Acute toxicity is 3 in the data set with Mus musculus [5], 2 in the data set on Mus musculus [16], 1 in the data set with Mus musculus [17] and 7 in the data set with Mus musculus [20]. Besides, the ED50 in the data set filed under Rattus norvegicus [6] was found to be 1.83 mg/kg; in the data set filed under Mus musculus [8], 2.5 mg/kg. For the same compound, the figures for the Analgesic effect in the data set with Rattus norvegicus [7], with Rattus norvegicus [18] and with Rattus norvegicus [19] were 28.4%, 28% and 57%, respectively. Besides, the Reduction was found to be 62.4% with Mus musculus [9], 39% in the data set on Rattus norvegicus [10], 69.2% in the data set on Rattus norvegicus [11] and 36.7% with Rattus norvegicus [22]. The UI with Rattus norvegicus [12] is recorded as 3.3; in the data set on Rattus norvegicus [15], 2.36; in the data set with Rattus norvegicus [21] it was 1.4. Further, the selectivity ratio in data set [13] turned out to be 10.9. Besides, in the data set on Rattus norvegicus [14], the UD50 was determined as 12.1 mg/kg. The same compound yielded an LD50 in data set [23] of 19.9 mg/kg.
As for `Oc1ccnc2cc(-c3ccccc3)nn12`, the Reduction in the data set with Mus musculus [1] was found to be 27.3%. The Reduction result in the data set with Rattus norvegicus [2] is “inactive”.
In the data set on Mus musculus [24], `CCn1ccc(=O)n2nc(-c3ccccc3)c(SSc3c(-c4ccccc4)nn4c(=O)ccn(CC)c34)c12` had a Reduction of 37.5%. The Reduction entry in the data set on Rattus norvegicus [25] is “inactive”.
Take `CCOC(Cn1ccc(=O)n2nc(-c3ccccc3)cc12)OCC`: the Reduction with Mus musculus [26] stood at 12.5%. Besides, the Reduction entry in the data set on Rattus norvegicus [27] is “inactive”.
The compound `CCn1cc(Br)c(=O)n2nc(-c3ccccc3)c(Br)c12` showed a Reduction in the data set with Mus musculus [24] of 0%. In addition, the Reduction result in the data set with Rattus norvegicus [25] was “inactive”.
For `CCOC(=O)/C=C/n1ccc(=O)n2nc(-c3ccccc3)cc12`, the Reduction in the data set with Mus musculus [24] amounted to 23.4%. Besides, the Reduction result with Rattus norvegicus [25] was “inactive”.
With `CCCCn1ccc(=O)n2nc(-c3ccccc3)cc12`, the Reduction was 26.6% with Mus musculus [26] and 59.8% in the data set on Rattus norvegicus [28].
For `Cn1ccc(=O)n2nc(-c3ccccc3)cc12`, the ED50 was 24.7 mg/kg in the data set filed under Rattus norvegicus [6] and 69.6 mg/kg in the data set listed under Mus musculus [8]. Besides, the Analgesic effect with Mus musculus [29] is on record as 80.7%; with Mus musculus [31], 43%; in the data set on Mus musculus [35], 53.3%. The Acute toxicity in the data set on Mus musculus [30] is 4; in the data set with Mus musculus [32] it was 6; in the data set with Mus musculus [34], 0; in the data set with Mus musculus [40], 1; in the data set on Mus musculus [41] it was 3. Besides, the Reduction in the data set with Rattus norvegicus [33] is 29.8%; in the data set on Rattus norvegicus [36], 67.5%; in the data set on Rattus norvegicus [37] it was 34.2%; in the data set with Rattus norvegicus [39] it was 55.1%; in the data set on Mus musculus [24], 54%. For the same compound, the selectivity ratio in data set [13] is 5.13. This compound returned a UI in the data set filed under Rattus norvegicus [38] of 0.5. The LD50 in data set [23] was 127 mg/kg.
In the data set with Mus musculus [24], `CCn1ccc(=O)n2nc(-c3ccc(C)cc3)cc12` gave a Reduction of 35.9%. In addition, in the data set on Rattus norvegicus [25], the Reduction result was “inactive”.
With `O=c1ccn(CCO)c2cc(-c3ccccc3)nn12`, in the data set with Mus musculus [24], the Reduction is on record as 16.5%. Further, in the data set on Rattus norvegicus [25], the Reduction result is “inactive”.

These data come from ChEMBL document CHEMBL1122438, “2-Phenylpyrazolo[1,5-a]pyrimidin-7-ones. A new class of nonsteroidal antiinflammatory drugs devoid of ulcerogenic activity” (J Med Chem, 1983).
